Tests used:
Type in all cases: functional
Mycobacterium avium = assay: Minimum inhibitory concentration (MIC) of compound against Mycobacterium avium SN 304
[1] = tested on: Mycobacterium tuberculosis; assay: Minimum inhibitory concentration (MIC) against Mycobacterium tuberculosis H 37 Ra
[2] = tested on: Mycolicibacterium smegmatis; assay: Minimum inhibitory concentration (MIC) of compound against Mycobacterium smegmatis ATCC 607
[3] = tested on: Mycobacterium tuberculosis; assay: Fractional inhibitory concentration (FIC) was determined for the compound in combination of Isoniazid
[4] = tested on: Mycobacterium tuberculosis; assay: Fractional inhibitory concentration (FIC) was determined for the compound in combination of Rifampicin
[5] = tested on: Mycobacterium tuberculosis; assay: Fractional inhibitory concentration (FIC) was determined for the compound in combination of Streptomycin sulfate
[6] = tested on: Mycobacterium tuberculosis; assay: Fractional inhibitory concentration (FIC) was determined for the compound in combination of Tetracycline hydrochloride
[7] = tested on: Mycobacterium tuberculosis; assay: Fractional inhibitory concentration (FIC) was determined for the compound in combination of trimethoprim
[8] = tested on: Mycobacterium tuberculosis; assay: Compound was evaluated for the synergistic effect in combination with cycloserine for the inhibition of Mycobacterium tuberculosis H 37 Ra, using Lowenstein-Jensen medium (solid)
[9] = tested on: Mycobacterium tuberculosis; assay: Compound was evaluated for the synergistic effect in combination with cycloserine for the inhibition of Mycobacterium tuberculosis H 37 Ra, using middlebrook 7H9 medium (liquid)
[10] = tested on: Mycobacterium tuberculosis; assay: Compound was evaluated for the synergistic effect in combination with dapsone for the inhibition of Mycobacterium tuberculosis H 37 Ra, using Lowenstein-Jensen medium (solid)
[11] = tested on: Mycobacterium tuberculosis; assay: Compound was evaluated for the synergistic effect in combination with dapsone for the inhibition of Mycobacterium tuberculosis H 37 Ra, using middlebrook 7H9 medium (liquid)
[12] = tested on: Mycobacterium tuberculosis; assay: Compound was evaluated for the synergistic effect in combination with ethambutol for the inhibition of Mycobacterium tuberculosis H 37 Ra, using Lowenstein-Jensen medium (solid)
[13] = tested on: Mycobacterium tuberculosis; assay: Compound was evaluated for the synergistic effect in combination with ethambutol for the inhibition of Mycobacterium tuberculosis H 37 Ra, using middlebrook 7H9 medium (liquid)
[14] = tested on: Mycobacterium tuberculosis; assay: Compound was evaluated for the synergistic effect in combination with ethionamide for the inhibition of Mycobacterium tuberculosis H 37 Ra, using Lowenstein-Jensen medium (solid)
[15] = tested on: Mycobacterium tuberculosis; assay: Compound was evaluated for the synergistic effect in combination with capreomycin for the inhibition of Mycobacterium tuberculosis H 37 Ra, using Lowenstein-Jensen medium (solid)
[16] = tested on: Mycobacterium tuberculosis; assay: Compound was evaluated for the synergistic effect in combination with capreomycin for the inhibition of Mycobacterium tuberculosis H 37 Ra, using middlebrook 7H9 medium (liquid)
[17] = tested on: Mycobacterium tuberculosis; assay: Fractional inhibitory concentration (FIC) was determined for the compound in combination of Aminosalicylic acid
[18] = tested on: Mycobacterium tuberculosis; assay: Fractional inhibitory concentration (FIC) was determined for the compound in combination of Benzaldehyde thiosemicarbazone
[19] = tested on: Mycobacterium tuberculosis; assay: Fractional inhibitory concentration (FIC) was determined for the compound in combination of Capreomycin
[20] = tested on: Mycobacterium tuberculosis; assay: Fractional inhibitory concentration (FIC) was determined for the compound in combination of Cycloserine
[21] = tested on: Mycobacterium tuberculosis; assay: Fractional inhibitory concentration (FIC) was determined for the compound in combination of Dapsone
[22] = tested on: Mycobacterium tuberculosis; assay: Fractional inhibitory concentration (FIC) was determined for the compound in combination of Ethambutol
[23] = tested on: Mycobacterium tuberculosis; assay: Fractional inhibitory concentration (FIC) was determined for the compound in combination of Ethionamide
Mycobacterium lufu = assay: Minimum inhibitory concentration (MIC) of compound against Mycobacterium lufu L 209
Mycobacterium marinum = assay: Minimum inhibitory concentration (MIC) of compound against Mycobacterium marinum SN 1254
[24] = tested on: Mycobacterium tuberculosis; assay: Compound was evaluated for the synergistic effect in combination with ethionamide for the inhibition of Mycobacterium tuberculosis H 37 Ra, using middlebrook 7H9 medium (liquid)
[25] = tested on: Mycobacterium tuberculosis; assay: Compound was evaluated for the synergistic effect in combination with isoniazid for the inhibition of Mycobacterium tuberculosis H 37 Ra, using Lowenstein-Jensen medium (solid)
[26] = tested on: Mycobacterium tuberculosis; assay: Compound was evaluated for the synergistic effect in combination with isoniazid for the inhibition of Mycobacterium tuberculosis H 37 Ra, using middlebrook 7H9 medium (liquid)
[27] = tested on: Mycobacterium tuberculosis; assay: Compound was evaluated for the synergistic effect in combination with rifampicin for the inhibition of Mycobacterium tuberculosis H 37 Ra, using Lowenstein-Jensen medium (solid)
[28] = tested on: Mycobacterium tuberculosis; assay: Compound was evaluated for the synergistic effect in combination with rifampicin for the inhibition of Mycobacterium tuberculosis H 37 Ra, using middlebrook 7H9 medium (liquid)
[29] = tested on: Mycobacterium tuberculosis; assay: Compound was evaluated for the synergistic effect in combination with streptomycin sulfate for the inhibition of Mycobacterium tuberculosis H 37 Ra, using Lowenstein-Jensen medium (solid)
[30] = tested on: Mycobacterium tuberculosis; assay: Compound was evaluated for the synergistic effect in combination with streptomycin sulfate for the inhibition of Mycobacterium tuberculosis H 37 Ra, using middlebrook 7H9 medium (liquid)
[31] = tested on: Mycobacterium tuberculosis; assay: Compound was evaluated for the synergistic effect in combination with tetracycline hydrochloride for the inhibition of Mycobacterium tuberculosis H 37 Ra, using Lowenstein-Jensen medium (solid)
[32] = tested on: Mycobacterium tuberculosis; assay: Compound was evaluated for the synergistic effect in combination with tetracycline hydrochloride for the inhibition of Mycobacterium tuberculosis H 37 Ra, using middlebrook 7H9 medium (liquid)
[33] = tested on: Mycobacterium tuberculosis; assay: Compound was evaluated for the synergistic effect in combination with trimethoprim for the inhibition of Mycobacterium tuberculosis H 37 Ra, using Lowenstein-Jensen medium (solid)
[34] = tested on: Mycobacterium tuberculosis; assay: Compound was evaluated for the synergistic effect in combination with trimethoprim for the inhibition of Mycobacterium tuberculosis H 37 Ra, using middlebrook 7H9 medium (liquid)
[35] = tested on: Mycobacterium tuberculosis; assay: Compound was evaluated for the synergistic effect in combination with aminosalicylic acid for the inhibition of Mycobacterium tuberculosis H 37 Ra, using Lowenstein-Jensen medium (solid)
[36] = tested on: Mycobacterium tuberculosis; assay: Compound was evaluated for the synergistic effect in combination with aminosalicylic acid for the inhibition of Mycobacterium tuberculosis H 37 Ra, using middlebrook 7H9 medium (liquid)
[37] = tested on: Mycobacterium tuberculosis; assay: Compound was evaluated for the synergistic effect in combination with benzaldehyde thiosemicarbazone for the inhibition of Mycobacterium tuberculosis H 37 Ra, using Lowenstein-Jensen medium (solid)
[38] = tested on: Mycobacterium tuberculosis; assay: Compound was evaluated for the synergistic effect in combination with benzaldehyde thiosemicarbazone for the inhibition of Mycobacterium tuberculosis H 37 Ra, using middlebrook 7H9 medium (liquid)
[39] = tested on: Mycobacterium tuberculosis; assay: Minimum inhibitory concentration (MIC) of compound against Mycobacterium tuberculosis H 37 Rv

Work on CNCc1cc(Cl)cc(Cl)c1.Cl yielded an MIC (Mycobacterium avium) of 4 µg/mL, an MIC [1] of 10.2 µg/mL and an MIC [2] of 32 µg/mL. The FIC index [3] was 1, the FIC index [4] was 0.5 and the FIC index [5] was 0.125. For the same molecule, the FIC index [6] was 1, the FIC index [7] was 0.5 and the MIC [8] was 25.6 µg/mL. The MIC [9] was 32 µg/mL, the MIC [10] was 5.12 µg/mL and the MIC [11] was 32 µg/mL. It also gave an MIC [12] of 1 µg/mL, an MIC [13] of 5 µg/mL and an MIC [14] of 6.4 µg/mL. For the same molecule, the MIC [15] was 4.47 µg/mL, the MIC [16] was 0.5 µg/mL and the FIC index [17] was 0.0625. It also gave an FIC index [18] of 0.25, an FIC index [19] of 1 and an FIC index [20] of 1. The FIC index [21] was 0.031, the FIC index [22] was 1 and the FIC index [23] was 1. For the same molecule, the MIC (Mycobacterium lufu) was 4 µg/mL, the MIC (Mycobacterium marinum) was 4 µg/mL and the MIC [24] was 1 µg/mL. The MIC [25] was 0.03 µg/mL, the MIC [26] was 0.1 µg/mL and the MIC [27] was 0.512 µg/mL. It also gave an MIC [28] of 0.01 µg/mL, an MIC [29] of 7.68 µg/mL and an MIC [30] of 0.1 µg/mL. For the same molecule, the MIC [31] was 7.68 µg/mL, the MIC [32] was 2 µg/mL and the MIC [33] was 179 µg/mL. The MIC [34] was 256 µg/mL, the MIC [35] was 0.025 µg/mL and the MIC [36] was 0.05 µg/mL. It also gave an MIC [37] of 0.179 µg/mL, an MIC [38] of 0.1 µg/mL and an MIC [39] of 3 µg/mL.

From ChEMBL document CHEMBL1122718, “Benzylamines: synthesis and evaluation of antimycobacterial properties” (1984)
